Results from PMC9503132, “Development of Halogenated-Chalcones Bearing with Dimethoxy Phenyl Head as Monoamine Oxidase-B Inhibitors” (Pharmaceuticals, 2022).
In brackets after ≈: the same amount, converted by molar mass.

Assays:
[1] = target: T1, MAO-B (Homo sapiens, UniProt P27338); experiment: Reversibility of MAO-B inhibition by dialysis; format: biochemical; conditions: for Reversibility of MAO-B inhibition: dialysis experiment; for Relative MAO-B activity, dialyzed (AD) / Relative MAO-B activity, undialyzed (AU): ~2 × IC50 (DM2 0.13, DM18 0.24, lazabemide 0.22, pargyline 0.28 µM), 30 min preincubation; for Relative MAO-B activity, dialyzed (AD): after dialysis
T1 construct: purchased Sigma-Aldrich
T1 sequence (P27338 1-520): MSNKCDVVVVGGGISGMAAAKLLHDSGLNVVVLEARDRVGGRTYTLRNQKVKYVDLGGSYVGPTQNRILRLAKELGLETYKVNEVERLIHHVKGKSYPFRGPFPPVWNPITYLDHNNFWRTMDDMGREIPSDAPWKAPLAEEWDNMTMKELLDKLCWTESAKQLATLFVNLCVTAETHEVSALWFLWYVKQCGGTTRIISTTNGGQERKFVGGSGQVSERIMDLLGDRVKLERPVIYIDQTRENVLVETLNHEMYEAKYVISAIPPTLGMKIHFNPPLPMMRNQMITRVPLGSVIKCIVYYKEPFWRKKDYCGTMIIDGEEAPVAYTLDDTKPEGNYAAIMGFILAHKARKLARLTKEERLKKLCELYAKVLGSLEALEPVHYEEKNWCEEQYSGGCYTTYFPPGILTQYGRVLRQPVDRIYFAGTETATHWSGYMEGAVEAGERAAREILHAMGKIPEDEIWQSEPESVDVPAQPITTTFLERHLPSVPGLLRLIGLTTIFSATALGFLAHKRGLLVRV
Method: To identify the reversibility patterns, the relative activities for samples dialyzed (AD) and for those undialyzed (AU) were compared.
By contrasting the recovery results of samples that had been dialyzed (AD) and undialyzed (AU), reversibility patterns were determined.

[2] = target: T2, BACE-1 (Homo sapiens, UniProt P56817); experiment: BACE-1 inhibition (β-secretase activity detection kit); format: biochemical; conditions: 10 µM compound; read-out: Residual activity at 10 µM (%) BACE-1
T2 construct: purchased Sigma-Aldrich
T2 sequence (P56817 46-501): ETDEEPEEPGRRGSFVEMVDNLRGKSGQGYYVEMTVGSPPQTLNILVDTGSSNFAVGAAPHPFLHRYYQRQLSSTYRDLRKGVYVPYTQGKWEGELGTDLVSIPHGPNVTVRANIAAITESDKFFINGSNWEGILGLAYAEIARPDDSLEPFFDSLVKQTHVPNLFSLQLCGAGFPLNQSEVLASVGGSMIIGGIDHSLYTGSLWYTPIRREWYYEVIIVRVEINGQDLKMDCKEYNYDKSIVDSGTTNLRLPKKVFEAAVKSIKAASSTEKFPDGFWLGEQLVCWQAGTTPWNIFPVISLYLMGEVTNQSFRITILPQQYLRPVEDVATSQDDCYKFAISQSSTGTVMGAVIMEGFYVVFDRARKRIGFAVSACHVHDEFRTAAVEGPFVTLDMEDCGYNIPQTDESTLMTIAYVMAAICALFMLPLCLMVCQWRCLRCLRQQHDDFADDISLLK
Method: (§1) The AChE and BChE inhibitory activities were measured by continuous colorimetric determination method, in the presence of 0.5 mM acetylthiocholine iodide (ACTI) and butyrylthiocholine iodide […]
(§2) POP, K LAB, Daejeon, Korea). After adding the substrate, 0.5 mM 5,5-dithiobis (2-nitrobenzoic acid) (DTNB) was added as the color development solution. The BACE-1 inhibitory activity was evaluated by β-secretase (BACE1) activity detection kit (Sigma-Aldrich, St. Louis, Mo, USA) using a fluorescence spectrometer (FS-2, Scinco, Seoul, Korea). […]

[3] = target: T3, MAO-A (Homo sapiens, UniProt P21397); experiment: MAO-A inhibition assay (recombinant enzyme, kynuramine substrate); format: biochemical; conditions: recombinant MAO-A, kynuramine 0.06 mM; for remaining activity at 10 µM: 10 µM compound, read-out: Residual Activity at 10 µM (%) MAO-A; for IC50: read-out: IC50 (µM) MAO-A
T3 construct: purchased Sigma-Aldrich
T3 sequence (P21397 1-527): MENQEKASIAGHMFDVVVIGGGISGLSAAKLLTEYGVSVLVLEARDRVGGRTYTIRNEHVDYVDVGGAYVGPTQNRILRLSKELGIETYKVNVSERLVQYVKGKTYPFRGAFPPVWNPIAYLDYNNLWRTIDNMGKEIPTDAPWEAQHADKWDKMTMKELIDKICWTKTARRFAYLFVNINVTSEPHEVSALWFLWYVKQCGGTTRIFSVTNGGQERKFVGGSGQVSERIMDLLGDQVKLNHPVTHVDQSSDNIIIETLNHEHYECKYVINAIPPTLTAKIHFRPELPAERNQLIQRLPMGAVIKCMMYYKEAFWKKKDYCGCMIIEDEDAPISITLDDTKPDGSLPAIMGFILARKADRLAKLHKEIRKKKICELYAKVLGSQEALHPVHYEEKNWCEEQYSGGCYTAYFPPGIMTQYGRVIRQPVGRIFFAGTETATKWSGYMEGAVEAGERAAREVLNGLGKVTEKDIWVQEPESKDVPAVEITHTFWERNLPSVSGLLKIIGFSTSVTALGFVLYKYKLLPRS
Method: (§3) Recombinant MAO-A and MAO-B were used to test the MAO inhibitory activity using the substrates kynuramine and benzylamine (0.06 mM and 0.3 mM, respectively). […] Chemicals were from Sigma-Aldrich.
(§4) MAO-A At 10 µM, compounds’ inhibitory effects on MAOs were initially recorded. […] The SI values of MAO-B were calculated by dividing the IC50 values for MAO-A and those for MAO-B. The MAO-B was used to study the kinetics of substances DM2 or DM18 at five different substrate concentrations. By using the LB plots and their secondary plots at three different inhibitor doses, the inhibition patterns were examined.

[4] = target: BChE (Equus caballus, UniProt P81908); experiment: biochemical; conditions: read-out: Residual activity at 10 µM (%) BChE
Sequence of BChE (P81908 whole entry): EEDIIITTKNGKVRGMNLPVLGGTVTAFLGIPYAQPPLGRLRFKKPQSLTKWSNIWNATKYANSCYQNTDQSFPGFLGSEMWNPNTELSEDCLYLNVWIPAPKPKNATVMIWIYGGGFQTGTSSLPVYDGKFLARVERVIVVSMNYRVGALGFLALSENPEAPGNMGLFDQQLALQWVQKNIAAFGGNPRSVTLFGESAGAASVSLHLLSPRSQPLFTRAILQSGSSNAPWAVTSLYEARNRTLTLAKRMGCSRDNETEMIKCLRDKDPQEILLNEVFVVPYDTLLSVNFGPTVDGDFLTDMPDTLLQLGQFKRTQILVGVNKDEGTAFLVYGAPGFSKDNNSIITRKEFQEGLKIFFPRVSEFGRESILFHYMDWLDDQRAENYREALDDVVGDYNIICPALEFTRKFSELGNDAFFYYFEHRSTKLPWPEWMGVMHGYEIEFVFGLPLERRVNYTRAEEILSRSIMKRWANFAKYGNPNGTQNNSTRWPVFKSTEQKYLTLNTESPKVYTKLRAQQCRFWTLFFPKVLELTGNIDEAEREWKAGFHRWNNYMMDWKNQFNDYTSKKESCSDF
Method: as §1, §2

[5] = test system: Vero cells; experiment: MTT cytotoxicity test on Vero cells; format: cell-based, African green monkey; conditions: 300 µg/mL, 48 h, phase contrast microscope
Method: (§5) Vero cells were treated to various doses (10–500 µg/mL) for 48 h, and relative cell viability was determined by measuring the absorbance at 570 nm with an ELISA microplate.
(§6) Cytotoxicity study of the lead molecule DM2 was carried out as previously described and as in Supplementary Materials described shortly.
(§7) Text S1. Supplementary procedure for toxicity evaluation
(§8) The cell line of Vero (African green monkey kidney cells) was procured from NCCS (Pune, India) and was grown in liquid medium (DMEM) containing 100 ug/mL penicillin, 100 µg/mL streptomycin, and 10% Fetal Bovine Serum (FBS) and preserved under an atmosphere of 5% CO2 at […]
(§9) The DM2 was assayed for in vitro cytotoxicity by MTT assay using the cultured Vero cells.
(§10) Briefly, the cultured Vero cells were produced by cell dissociation with trypsin (trypsinization), collectively in a 15 mL tube. At a density of 1×10^5 cells/mL cells/well (200 µL), the cells were plated for 24-48 h at 37°C into 96-well tissue culture plate in DMEM medium containing 10 % FBS and 1% antibiotic solution. The wells were washed with sterile phosphate buffered saline (PBS) and further allowed to react with varying concentrations of the DM2 in a serum free DMEM medium. The samples were triplicated and the cells were kept for incubation at 37°C for 24 h in a humidified 5% CO2 incubator. MTT (20 µL of 5 mg/mL) was added into each well after the incubation and the cells were incubated for another 2-4 h. The end point was determined by the purple precipitation, which was clearly seen under an inverted microscope. At the end, the medium along with MTT (220 µL) were used for the aspiration of the wells and later washed with 1X PBS (200 µL). In order to dissolve formazan crystals, DMSO (100 µL) was added to the plate with shaking for 5 min. The absorbance at 570 nm was measured using a micro plate reader (Thermo Fisher Scientific, USA). The IC50 value and the percentage cell viability was calculated using GraphPad Prism 8.0 software (USA).

[6] = MTT cytotoxicity test on Vero cells; format: cell-based, African green monkey; conditions: African green monkey, Vero cells, MTT
Method: as §5, §6, §7, §8, §9, §10

[7] = target: AChE (Electrophorus electricus, UniProt O42275); experiment: AChE inhibition (colorimetric, acetylthiocholine iodide); format: biochemical; conditions: read-out: Residual activity at 10 µM (%) AChE
Sequence of AChE (O42275 24-633): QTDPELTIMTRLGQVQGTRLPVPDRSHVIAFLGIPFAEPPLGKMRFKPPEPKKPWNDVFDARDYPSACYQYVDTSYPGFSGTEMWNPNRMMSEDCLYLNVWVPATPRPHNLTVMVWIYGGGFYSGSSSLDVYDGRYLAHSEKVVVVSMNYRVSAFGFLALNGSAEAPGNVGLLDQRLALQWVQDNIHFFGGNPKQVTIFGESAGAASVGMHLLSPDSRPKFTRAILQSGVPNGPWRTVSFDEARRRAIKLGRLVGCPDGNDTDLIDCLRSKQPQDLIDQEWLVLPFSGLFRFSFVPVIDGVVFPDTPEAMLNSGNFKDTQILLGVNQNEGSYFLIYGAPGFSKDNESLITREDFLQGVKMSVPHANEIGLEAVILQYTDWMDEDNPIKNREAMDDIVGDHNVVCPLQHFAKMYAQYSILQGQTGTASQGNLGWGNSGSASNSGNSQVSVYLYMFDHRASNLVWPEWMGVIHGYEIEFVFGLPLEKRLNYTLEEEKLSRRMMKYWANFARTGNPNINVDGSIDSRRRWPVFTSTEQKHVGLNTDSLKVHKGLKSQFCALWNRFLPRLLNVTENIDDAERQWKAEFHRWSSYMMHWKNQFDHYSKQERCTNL
Method: as §1
POP, K LAB, Daejeon, Korea). After adding the substrate, 0.5 mM 5,5-dithiobis (2-nitrobenzoic acid) (DTNB) was added as the color development solution. The BACE-1 inhibitory activity was evaluated by β-secretase (BACE1) activity detection kit (Sigma-Aldrich, St. Louis, Mo, USA) using a fluorescence spectrometer (FS-2, Scinco, Seoul, Korea).
64. […] A new and rapid colorimetric determination of acetylcholinesterase activity. Biochem. Pharmacol. 7, 88-95. […]

[8] = target: T1, MAO-B; experiment: MAO-B kinetic study (Lineweaver-Burk and secondary plots); format: biochemical; conditions: for Inhibition pattern of MAO-B: Lineweaver-Burk plots, five substrate and three inhibitor concentrations; for Ki: secondary plots of LB slopes vs. inhibitor concentration
Method: as §4

[9] = target: T1, MAO-B; experiment: MAO-B inhibition assay (recombinant enzyme, benzylamine substrate); format: biochemical
Method: as §3, §4

| SMILES | Reversibility of MAO-B inhibition [1] | Relative MAO-B activity, dialyzed (AD) [1] [%] | Relative MAO-B activity, undialyzed (AU) [1] [%] | remaining activity at 10 µM [2] [%] | remaining activity at 10 µM [3] [%] | IC50 [3] [µM] | remaining activity at 10 µM [4] [%] | Morphological observation of Vero cells [5] | IC50 at 48 h ([6]; Vero cells (kidney epithelial cells), 10–500 µg/mL, read-out: IC50 (Vero cell viability)) [µg/mL] | viability at 48 h, 100 µg/mL ([6]; 100 µg/mL, read-out: Cells alive (relative cell viability)) [%] | remaining activity at 10 µM [7] [%] | Inhibition pattern of MAO-B [8] | Ki [8] [nM] | remaining activity at 10 µM ([9]; 10 µM compound, recombinant MAO-B, benzylamine 0.3 mM, read-out: Residual Activity at 10 µM (%) MAO-B) [%] | SI (selectivity index for MAO-B as compared to MAO-A) ([9]; IC50 MAO-A divided by IC50 MAO-B) | Times more MAO-B inhibition than meta-F analogue DM19 ([9]; ortho-F (DM18) versus meta-F (DM19)) | IC50 ([9]; recombinant MAO-B, benzylamine 0.3 mM, read-out: IC50 (µM) MAO-B) [µM] |
| --- | --- | --- | --- | --- | --- | --- | --- | --- | --- | --- | --- | --- | --- | --- | --- | --- | --- |
| COc1ccc(C(=O)/C=C/c2ccccc2Cl)c(OC)c1 [DM2] | reversible | 74.0 | 36.0 | 100.5 ± 0.18 | 41.5 ± 1.59 | 6.29 ± 0.432 | 64.16 ± 0.44 | cytotoxicity was evident in cell shrinkage and blebbing, and cellular density decreased | 183 (≈ 605 µM) | 80 | 71.9 ± 2.87 | competitive inhibitors | 32 ± 4 |  |  |  |  |
| COc1ccc(C(=O)/C=C/c2ccccc2F)cc1OC [DM18] | reversible | 76.6 | 40.1 | 99.94 ± 0.01 | 100 ± 0.01 | > 40 | 59.5 ± 4.08 |  |  |  | 78.5 ± 4.89 | competitive inhibitors | 45 ± 1 | 8.87 ± 1.08 | >338.98 | 3.75 | 0.118 ± 0.036 |
